Tests used:
[1] = molecular target: T1, motilin receptor preparation (Human antrum tissue) (Homo sapiens, UniProt O43193); experiment: 125I-motilin binding to human antral stomach membranes; parameters: % Inh (Human antrum): dose or concentration left out as unconfirmed; details: for inhibition at 1 µM: read-out: Human Antrum % Inh @1 μM
T1 construct: Human antrum tissue from Analytical Biological Services (Wilmington, Del.) was prepared as a motilin receptor preparation; tissue Analytical Biological Services (Wilmington, Del.); host or cells: human antrum (stomach) muscle tissue, crude membrane homogenate
Procedure: Human antrum tissue from Analytical Biological Services (Wilmington, Del.) was prepared as a motilin receptor preparation in the following manner. The muscle tissue was homogenized in 10 volumes of 50 mM Tris-Cl, 10 mM MgCl2, 0.1 mg/ml bacitracin, and 0.25 mM Peflabloc, pH 7.5) in a Polytron (29000 rpm, 4×15 seconds). The homogenate was centrifuged at 1000×g for 15 minutes and the supernatant discarded. The pellet was washed twice before being suspended in homogenizing buffer. The crude homogenate was resuspended through a 23 gauge needle before aliquoting and storing at −80° C. The human cloned receptor was prepared from HEK 293 cells overexpressed with the motilin receptor. Cell pellets were thawed and resuspended in 2–3 volumes of homogenizing buffer (10 mM Tris-Cl, 0.2 mM MgCl2, 5 mM KCl, 5 μg/ml aprotinin, leupeptin, and pepstatin A, and 50 μg/ml bacitracin, pH 7.5) and allowed to sit on ice for 15–20 minutes. The suspension was homogenized on ice in a Dounce type homogenizer using 15 strokes. Sucrose and EDTA were added to a final concentration of 0.25M and 1 mM, respectively, and mixed with a few additional strokes. The material was centrifuged at 400×g for 5 minutes, and the supernatant saved. The pellet was re-resuspended twice with 5 ml homogenizing buffer and rehomogenized as before, and the supernatants combined. The supernatant was centrifuged at 100000×g for 1 hour. The pellet is retained and resuspended with 5 ml of homogenizing buffer through a 19 g and 25 g needle. The suspension is aliquoted and stored at −80° C. until used. The binding assay contains the following components (50 mM HEPES, 5 mM MgCl2, and 1 mM EGTA, pH 7.0, 15 mg/ml BSA, 10 μg/ml aprotinin, leupeptin, and pepstatin A, 0.25 mg/ml bacitracin, and 10 mM benzamidine), ^125I-radiolabelled porcine motilin (50000–70000 cpm; specific activity 2000 Ci/mmol), test compound, and membrane protein. After 60 minutes at 30° C., the samples are placed on ice and centrifuged for 1 minute at 13000×g. The pellet is washed twice with 1 ml cold saline, and after removal of the final supernatant, the pellet at the bottom of the tube is counted in a gamma counter. Non-specific binding is measured by the inclusion of 1 μM unlabelled motilin. IC50 values were determined from Kaleidograph curves.
125I-Motilin Binding to Human Antral Stomach Membranes and the Human Cloned Receptor: […]

[2] = molecular target: T2, human cloned receptor (motilin receptor) (Homo sapiens, UniProt O43193); experiment: 125I-motilin binding to human cloned receptor (HEK 293 cells overexpressed with the motilin receptor); details: HEK 293 membranes
T2 construct: expressed in transfected cells; host or cells: HEK 293 cells
Procedure: Human antrum tissue from Analytical Biological Services (Wilmington, Del.) was prepared as a motilin receptor preparation in the following manner. The muscle tissue was homogenized in 10 volumes of 50 mM Tris-Cl, 10 mM MgCl2, 0.1 mg/ml bacitracin, and 0.25 mM Peflabloc, pH 7.5) in a Polytron (29000 rpm, 4×15 seconds). The homogenate was centrifuged at 1000×g for 15 minutes and the supernatant discarded. The pellet was washed twice before being suspended in homogenizing buffer. The crude homogenate was resuspended through a 23 gauge needle before aliquoting and storing at −80° C. The human cloned receptor was prepared from HEK 293 cells overexpressed with the motilin receptor. Cell pellets were thawed and resuspended in 2–3 volumes of homogenizing buffer (10 mM Tris-Cl, 0.2 mM MgCl2, 5 mM KCl, 5 μg/ml aprotinin, leupeptin, and pepstatin A, and 50 μg/ml bacitracin, pH 7.5) and allowed to sit on ice for 15–20 minutes. The suspension was homogenized on ice in a Dounce type homogenizer using 15 strokes. […] The pellet is washed twice with 1 ml cold saline, and after removal of the final supernatant, the pellet at the bottom of the tube is counted in a gamma counter. Non-specific binding is measured by the inclusion of 1 μM unlabelled motilin. IC50 values were determined from Kaleidograph curves. […]

[3] = system: motilin induced contraction; experiment: Rabbit tissue bath procedure: inhibition of motilin induced contraction of duodenum segments; parameters: species or system New Zealand White rabbit; details: 3 nM porcine motilin induced contraction, read-out: Tissues IC50
Procedure: Rabbit Tissue Bath Procedure
One New Zealand White rabbit (Covance) of either sex was euthanized with an IV injection of Sleepaway. The duodenum was quickly excised, the lumen rinsed with saline to clean, and the tissue placed in cold, aerated (95% O2–5% CO2) Tyrodes buffer (NaCl 136.9 mM, KCl 2.7 mM, CaCl2 1.8 mM, MgCl2 1.04 mM, NaH2PO4 0.42 mM, NaHCO3 11.9 mM, Glucose 5.55 mM, pH 7.4). The duodenum, being kept moist at all times, was cleaned of any excess mesenteric tissue, and then cut into 3 cm segments starting at the proximal end. Sixteen tissue segments were usually prepared from each duodenum. These segments were tied on both ends with 3-0 silk suture (Ethicon). One end of the tissue was attached to an S-hook on a custom made glass support rod (Crown Glass Co., Somerville) and the rod plus tissue were placed in a 15 ml isolated tissue bath (Radnoti). The other end of the glass rod was attached to a Grass Force Displacement Transducer FT03. The tissue was maintained in room temperature Tyrodes buffer pH 7.4 and continually gassed with 95% O2— 5% CO2. The tissues were adjusted to 1.0 g resting tension and maintained at that tension throughout the equilibration period. An Ml2 Tissue Bath Computer was used to record and analyze data.
The tissues were washed twice during a 30 minute equilibration period and readjusted to 1 g resting tension as necessary. After equilibration the tissues were challenged with 3 μM Carbachol (Carbamoylcholine Chloride-Sigma). After maximal contraction was attained, the tissues were washed 3 times with Tyrodes. The tissues were allowed a 20 minute resting/equilibration period, during which time they were washed once and readjusted to 1 g resting tension. The tissues were challenged a second time with 3 μM Carbachol, and this contraction was considered as maximal, or 100% contraction. The tissues were washed 3 times, equilibrated for 10 minutes, washed again and readjusted to 1 g resting tension. Vehicle or test compound in 30% DMSO-50 mM HEPES was added directly to the bath and the tissues were incubated for 20 minutes. Test compounds and vehicle were run in duplicate.
The percent inhibition by test compound of the motilin induced contraction was calculated by first determining the ratio of the vehicle contractions with Motilin compared to the Carbachol contractions. This Tissue Adjustment Factor (TAF) was used to determine the value for the potential uninhibited contraction with Motilin for each tissue. The percent inhibition was then determined by dividing the actual Motilin contraction in treated tissues by the potential uninhibited contraction and subtracting this number from 1. IC50 values were determined by graphing results with Kaleidograph graphing program.

Motilin Receptor = molecular target: T3, Motilin Receptor (Oryctolagus cuniculus, UniProt G1T803); experiment: Motilin receptor binding, rabbit colon membranes, 125I porcine motilin; parameters: Rabbit Colon % Inh / inhibition / % Inh (Rabbit colon): dose or concentration left out as unconfirmed; details: rabbit colon membranes; 125I porcine motilin binding
T3 construct: The muscle tissue was homogenized in 10 volumes of 50 mM Tris-Cl; from tissue; host or cells: rabbit colon smooth muscle, crude membrane homogenate
T3 sequence (G1T803 1-400): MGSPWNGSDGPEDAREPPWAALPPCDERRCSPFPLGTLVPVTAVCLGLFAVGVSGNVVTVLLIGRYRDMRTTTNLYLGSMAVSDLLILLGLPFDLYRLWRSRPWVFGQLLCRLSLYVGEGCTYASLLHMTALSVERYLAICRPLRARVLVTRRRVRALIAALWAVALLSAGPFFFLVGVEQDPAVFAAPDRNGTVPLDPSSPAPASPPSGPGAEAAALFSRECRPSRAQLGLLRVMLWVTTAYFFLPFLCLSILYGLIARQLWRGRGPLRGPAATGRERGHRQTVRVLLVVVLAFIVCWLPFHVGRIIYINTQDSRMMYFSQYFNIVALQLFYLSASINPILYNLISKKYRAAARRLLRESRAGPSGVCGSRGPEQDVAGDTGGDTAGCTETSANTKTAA

T1 sequence (O43193 whole entry): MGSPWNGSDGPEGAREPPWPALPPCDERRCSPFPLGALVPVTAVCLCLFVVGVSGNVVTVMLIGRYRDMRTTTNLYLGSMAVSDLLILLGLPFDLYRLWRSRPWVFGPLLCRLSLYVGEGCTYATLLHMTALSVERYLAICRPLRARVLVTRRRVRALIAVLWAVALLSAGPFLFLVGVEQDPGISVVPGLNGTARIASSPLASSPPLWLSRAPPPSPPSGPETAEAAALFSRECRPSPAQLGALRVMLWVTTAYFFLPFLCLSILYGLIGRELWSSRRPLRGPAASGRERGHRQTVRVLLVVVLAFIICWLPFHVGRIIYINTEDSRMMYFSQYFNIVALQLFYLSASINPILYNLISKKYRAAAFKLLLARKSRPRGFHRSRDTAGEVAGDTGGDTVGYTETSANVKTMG
T2 sequence (O43193 whole entry): as above

| inhibition at 1 µM ([1]; human antrum membranes, @1 μM) [%] | IC50 [3] [nM] | IC50 ([1]; human antrum membranes) [nM] | Structure (SMILES) | other results |
| --- | --- | --- | --- | --- |
|  |  |  | CC[C@H](C)[C@H](NC(=O)[C@@H]1CCCN1C(=O)[C@@H](NC(=O)[C@@H](N)Cc1ccccc1)C(C)C)C(=O)N[C@@H](Cc1ccccc1)C(=O)N[C@H](C(=O)N[C@@H](Cc1ccc(O)cc1)C(=O)NCC(=O)N[C@@H](CCC(=O)O)C(=O)N[C@@H](CC(C)C)C(=O)N[C@@H](CCC(N)=O)C(=O)N[C@@H](CCCNC(=N)N)C(=O)N[C@@H](CCSC)C(=O)N[C@@H](CCC(N)=O)C(=O)N[C@@H](CCC(=O)O)C(=O)N[C@@H](CCCCN)C(=O)N[C@@H](CCC(=O)O)C(=O)N[C@@H](CCCNC(=N)N)C(=O)N[C@@H](CC(N)=O)C(=O)N[C@@H](CCCCN)C(=O)NCC(=O)N[C@@H](CCC(N)=O)C(=O)O)[C@@H](C)O [Motilin] | IC50 ([1]; 125I-Motilin binding to human antral stomach membranes): 1 ± 0.1 nM; IC50 [2]: 3.55 ± 0.05 nM |
| 98 | 35 |  | O=C(c1ccc(F)cc1)N(C[C@H]1CC[C@@H](N(Cc2ccccc2)C(=O)C(Cl)(Cl)Cl)C1)c1cccc(OCCN2CCCC2)c1 [compound 218] |  |
|  |  |  | O=C(c1ccc(F)cc1)N(CC1CCCC(N(Cc2ccccc2)Cc2ccccc2)C1)c1cccc(OCCN2CCCC2)c1 (stereo not drawn) [compound 222] | % Inh (Rabbit colon) (Motilin Receptor): 83%; % Inh (Human antrum) ([1]; human antrum membranes, 125I porcine motilin binding): 83% |
| 100 | 9 | 32 | CC(C)(C)C(=O)N(Cc1cccc(Cl)c1)C1CCCC(CN(C(=O)c2ccc(F)cc2)c2cccc(OCCN3CCCC3)c2)C1 (stereo not drawn) [compound 226] |  |
| 100 |  | 25 | CC(C)(C)C(=O)N(Cc1ccc(F)c(F)c1)C1CCCC(CN(C(=O)c2ccc(F)cc2)c2cccc(OCCN3CCCC3)c2)C1 (stereo not drawn) [compound 228] |  |
|  |  |  | O=C(c1ccc(F)cc1)N(C[C@H]1CC[C@@H](N(Cc2ccccc2)C(=O)C(Cl)(Cl)Cl)C1)c1cccc(OCCN2CCCC2)c1 [compound 231] | Human Antrum % Inh @1 μM ([1]; human antrum membranes, @1 μM): 88% |

Source: patent publication US7112586B2, “Substituted diamine derivatives useful as motilin antagonists” (Ortho-McNeil Pharmaceutical, Inc., priority 2000, dated 2006)
